Reference: US20160355483A1, “COMPOUND BINDING TO PPARG BUT NOT ACTING AS PROMOTER AND PHARMACEUTICAL COMPOSITION FOR TREATING PPARG-RELATED DISEASES CONTAINING SAME AS ACTIVE INGREDIENT” (Hyundai Pharm Co., Ltd., priority 2014, published 2016)

Target: T1, PPARG (peroxisome proliferator activated receptor-gamma), GST-PPARG-LBD (Homo sapiens, UniProt P37231)
T1 construct: 15 μL of 5 nM GST-PPARG-LBD and 5 nM Tb-GST-antibody were added; purchased Invitrogen PV4894
T1 sequence (P37231 238-503 limits assumed): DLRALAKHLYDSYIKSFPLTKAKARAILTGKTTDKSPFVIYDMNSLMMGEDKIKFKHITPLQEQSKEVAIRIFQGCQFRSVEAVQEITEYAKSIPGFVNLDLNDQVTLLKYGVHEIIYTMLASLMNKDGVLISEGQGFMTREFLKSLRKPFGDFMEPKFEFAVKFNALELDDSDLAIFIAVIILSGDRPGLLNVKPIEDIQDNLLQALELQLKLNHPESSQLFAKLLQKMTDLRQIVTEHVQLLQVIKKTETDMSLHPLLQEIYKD
Test: LanthaScreen TR-FRET PPARG Competitive Binding Assay
Parameters: key: “+” indicates the degree of the binding activity, and as the number of “+” increases, the binding activity is stronger; ++: “+” indicates the degree of the binding activity, and as the number of “+” increases, the binding activity is stronger; +++: “+” indicates the degree of the binding activity, and as the number of “+” increases, the binding activity is stronger; ++++: “+” indicates the degree of the binding activity, and as the number of “+” increases, the binding activity is stronger
Settings: degree of binding activity
Procedure, shortened: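 Ratio of 518 nm to 488 nm time-resolved emission after a 1 h room-temperature incubation, in competition format with GST-PPARG ligand-binding domain. Values are expressed as 100% minus compound-to-vehicle ratio and related to rosiglitazone binding.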

| Compound | Binding assay (1 μLM) |
| --- | --- |
| Cc1ccc([C@H](C)NC(=O)c2ccc3c(c2)CCCN3Cc2cccc(-c3ccccc3C(=O)O)c2F)cc1F [Example 130, (S)-2′-fluoro-3′-((6-((1-(3-fluoro-4-methylphenyl)ethyl)carbamoyl)-3,4-dihydroquinoline-1(2H)-yl)methyl)-[1,1′-biphenyl]-2-caboxylic acid] | +++ |
| Cc1ccc([C@H](C)NC(=O)c2ccc3c(c2)CCCN3Cc2cccc(-c3ccccc3C(N)=O)c2F)cc1F [Example 133, (S)-1-((2′-carbamoyl-2-fluoro-[1,1′-biphenyl]-3-yl)methyl)-N-(1-(3-fluoro-4-methylphenyl)ethyl)-1,2,3,4-tetrahydroquinoline-6-carboxamide] | +++ |
| C[C@H](NC(=O)c1ccc2c(c1)CCCN2Cc1cc(-c2ccccc2C(N)=O)ccc1F)c1ccccc1 [Example 135, (S)-1-((2′-carbamoyl-4-fluoro-[1,1′-biphenyl]-3-yl)methyl)-N-(1-phenylethyl)-1,2,3,4-tetrahydroquinoline-6-carboxamide] | +++ |
| C[C@H](NC(=O)c1ccc2c(c1)CCCN2Cc1cc(-c2ccccc2C(=O)O)ccc1F)c1ccc2ccccc2c1 [Example 137, (S)-4′-fluoro-3′-((6-((1-(naphthalene-2-yl)ethyl)carbamoyl)-3,4-dihydroquinoline-1(2)-yl)methyl)-[1,1′-biphenyl]-2-carboxylic acid] | ++++ |
| Cc1ccc([C@H](C)NC(=O)c2ccc3c(c2)CCCN3Cc2cc(-c3ccccc3C(=O)O)ccc2F)cc1F [Example 138, (S)-4′-fluoro-3′-((6-((1-(3-fluoro-4-methylphenyl)ethyl)carbamoyl)-3,4-dihydroquinoline-1(2H)-yl)methyl)-[1,1′-biphenyl]-2-caboxylic acid] | ++++ |
| C[C@H](NC(=O)c1ccc2c(c1)OCCN2Cc1ccccc1-c1ccc(C(=O)O)cc1)c1ccccc1 [Example 142, (S)-2′-((7-((1-phenylethyl)carbamoyl)-2H-benzo[b][1,4]oxazine-4(3H)-yl)methyl)-[1,1′-biphenyl]-4-carboxylic acid] | ++ |
| C[C@H](NC(=O)c1ccc2c(c1)OCCN2Cc1ccccc1-c1ccc(C(=O)O)cc1)c1ccc([N+](=O)[O-])cc1 [Example 146, (S)-2′-((7-((1-(4-nitrophenyl)ethyl)carbamoyl)-2H-benzo[b][1,4]oxazine-4 (3H)-yl)methyl)-[1,1′-biphenyl]-4-carboxylic acid] | + |
| C[C@H](NC(=O)c1ccc2c(c1)CCCN2Cc1ccccc1-c1ccc(C(=O)O)cc1)c1ccccc1 [Example 152, (S)-2′-((6-((1-phenylethyl)carbamoyl)-3,4-dihydroquinoline-1 (2H)-yl)methyl)-[1,1′-biphenyl]-4-carboxylic acid] | ++ |

Further lines, results first:

| Binding assay (1 μLM) | Compound |
| --- | --- |
| ++++ | C[C@H](NC(=O)c1ccc2c(c1)CCCN2Cc1cccc(-c2ccccc2C(N)=O)c1F)c1ccc2ccccc2c1 [Example 132, (S)-1-((2′-carbamoyl-2-fluoro-[1,1′-biphenyl]-3-yl)methyl)-N-(1-(naphthalene-2-yl)ethyl)-1,2,3,4-tetrahydroquinoline-6-carboxamide] |
| ++++ | C[C@H](NC(=O)c1ccc2c(c1)CCCN2Cc1cc(-c2ccccc2C(=O)O)ccc1F)c1ccccc1 [Example 134, (S)-4′-fluoro-3′-((6-((1-phenylethyl)carbamoyl)-3,4-dihydroquinoline-1(2H)-yl)methyl)-[1,1′-biphenyl]-2-carboxylic acid] |
| +++ | C[C@H](NC(=O)c1ccc2c(c1)CCCN2Cc1cc(-c2ccccc2C(=O)O)ccc1F)c1ccc([N+](=O)[O-])cc1 [Example 136, (S)-4′-fluoro-3′-((6-((1-(4-nitrophenyl)ethyl)carbamoyl)-3,4-dihydroquinoline-1(2H)-yl)methyl)-[1,1′-biphenyl]-2-caboxylic acid] |
| ++++ | C[C@H](NC(=O)c1ccc2c(c1)CCCN2Cc1cc(-c2ccccc2C(N)=O)ccc1F)c1ccc2ccccc2c1 [Example 140, (S)-1-((2′-carbamoyl-4-fluoro-[1,1′-biphenyl]-3-yl)methyl)-N-(1-(naphthalene-2-yl)ethyl)-1,2,3,4-tetrahydroquinoline-6-carboxamide] |
| +++ | Cc1ccc([C@H](C)NC(=O)c2ccc3c(c2)CCCN3Cc2cc(-c3ccccc3C(N)=O)ccc2F)cc1F [Example 141, (S)-1-((2′-carbamoyl-4-fluoro-[1,1′-biphenyl]-3-yl)methyl)-N-(1-(3-fluoro-4-methylphenyl)ethyl)-1,2,3,4-tetrahydroquinoline-6-carboxamide] |
| ++ | C[C@H](NC(=O)c1ccc2c(c1)OCCN2Cc1ccccc1-c1ccc(C(N)=O)cc1)c1ccccc1 [Example 143, (S)-4-((4′-carbamoyl-[1,1′-biphenyl]-2-yl)methyl)-N-(1-phenylethyl)-3,4-dihydro-2H-benzo[b][1,4]oxazine-7-carboxamide] |
| + | C[C@H](NC(=O)c1ccc2c(c1)OCCN2Cc1ccccc1-c1ccc(C(=O)O)cc1)c1ccc(C#N)cc1 [Example 144, (S)-2′-((7-((1-(4-cyanophenyl)ethyl)carbamoyl)-2H-benzo[b][1,4]oxazine-4(3H)-yl)methyl)-[1,1′-biphenyl]-4-carboxylic acid] |
| ++ | Cc1ccc([C@H](C)NC(=O)c2ccc3c(c2)OCCN3Cc2ccccc2-c2ccc(C(=O)O)cc2)cc1F [Example 145, (S)-2′-((7-((1-(3-fluoro-4-methylphenyl)ethyl)carbamoyl)-2H-benzo[b][1,4]oxazine-4(3H)-yl)methyl)-[1,1′-biphenyl]-4-carboxylic acid] |
| +++ | C[C@H](NC(=O)c1ccc2c(c1)OCCN2Cc1ccccc1-c1ccc(C(=O)O)cc1)c1ccc2ccccc2c1 [Example 147, (S)-2′-((7-((1-(naphthalene-2-yl)ethyl)carbamoyl)-2H-benzo[b][1,4]oxazine-4(3H)-yl)methyl)-[1,1′-biphenyl]-4-carboxylic acid] |
| ++ | Cc1ccc([C@H](C)NC(=O)c2ccc3c(c2)OCCN3Cc2ccccc2-c2ccc(C(N)=O)cc2)cc1F [Example 148, (S)-4-((4′-carbamoyl-[1,1′-biphenyl]-2-yl)methyl)-N-(1-(3-fluoro-4-methylphenyl)ethyl)-3,4-dihydro-2H-benzo[b][1,4]oxazine-7-carboxamide] |
| + | C[C@H](NC(=O)c1ccc2c(c1)OCCN2Cc1ccccc1-c1ccc(C(N)=O)cc1)c1ccc(C#N)cc1 [Example 149, (S)-4-((4′-carbamoyl-[1,1′-biphenyl]-2-yl)methyl)-N-(1-(4-cyanophenyl)ethyl)-3,4-dihydro-2H-benzo[b][1,4]oxazine-7-carboxamide] |
| ++ | C[C@H](NC(=O)c1ccc2c(c1)OCCN2Cc1ccccc1-c1ccc(C(N)=O)cc1)c1ccc([N+](=O)[O-])cc1 [Example 150, (S)-4-((4′-carbamoyl-[1,1′-biphenyl]-2-yl)methyl)-N-(1-(4-nitrophenyl)ethyl)-3,4-dihydro-2H-benzo[b][1,4]oxazine-7-carboxamide] |
| +++ | C[C@H](NC(=O)c1ccc2c(c1)OCCN2Cc1ccccc1-c1ccc(C(N)=O)cc1)c1ccc2ccccc2c1 [Example 151, (S)-4-((4′-carbamoyl-[1,1′-biphenyl]-2-yl)methyl)-N-(1-(naphthalene-2-yl)ethyl)-3,4-dihydro-2H-benzo[b][1,4]oxazine-7-carboxamide] |
